Source: paper PMC9354932, “Heme Interferes With Complement Factor I-Dependent Regulation by Enhancing Alternative Pathway Activation” (Frontiers in Immunology, 2022)
pKd: −log10 of the molar value.

Biological target: T1, factor I (FI) (Homo sapiens, UniProt P05156)
T1 construct: gene CFI; purified human complement factor I, commercial (CompTech); mature heavy and light chains of one precursor; immobilised on CM5 chip for SPR
T1 sequence (P05156 19-335): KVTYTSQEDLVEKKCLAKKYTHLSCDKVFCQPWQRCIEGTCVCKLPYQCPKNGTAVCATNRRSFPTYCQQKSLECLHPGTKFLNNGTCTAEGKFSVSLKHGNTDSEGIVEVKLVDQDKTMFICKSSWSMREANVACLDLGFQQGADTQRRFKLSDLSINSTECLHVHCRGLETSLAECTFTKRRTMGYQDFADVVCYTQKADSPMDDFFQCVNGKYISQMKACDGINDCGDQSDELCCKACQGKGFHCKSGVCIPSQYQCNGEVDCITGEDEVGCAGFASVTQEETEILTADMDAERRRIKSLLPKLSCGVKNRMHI
T1 sequence (P05156 340-583): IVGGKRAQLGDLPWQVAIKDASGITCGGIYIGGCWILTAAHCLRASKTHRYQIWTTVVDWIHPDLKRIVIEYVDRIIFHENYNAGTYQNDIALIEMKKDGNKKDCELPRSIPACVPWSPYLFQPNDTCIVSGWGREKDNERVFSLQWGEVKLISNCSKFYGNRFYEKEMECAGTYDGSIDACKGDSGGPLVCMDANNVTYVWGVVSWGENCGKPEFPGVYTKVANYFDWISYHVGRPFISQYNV
Test: SPR (Biacore […]), factor I immobilised on CM5 chip
Format: binding
Conditions: read-out: KD (apparent)

Work on `C=CC1=C(C)C2=Cc3c(C=C)c(C)c4[n]3[Fe]([Cl])[n]3c(c(C)c(CCC(=O)O)c3=CC3=NC(=C4)C(C)=C3CCC(=O)O)=CC1=N2` [heme] yielded a pKd of 4.94.
